Data set [1] concerns Caco-2 cell monolayer. Description: Bidirectional transport (Papp) across Caco-2 cell monolayer. Type of data set: in vitro ADME, human. As to conditions: for Absorption designation: from Caco-2 Papp compared with propranolol and atenolol; for Time course of bilateral permeation: 0–180 min at 50 μM; for Transport mechanism / Efflux Ratio (Papp BL→AP to Papp AP→BL): Caco-2 monolayer; for Efflux Ratio (Papp BL→AP to Papp AP→BL): 90 min; for Concentration dependence of rate of membrane permeation: at 90 min within test range of concentration. As for the experimental part: (§1) The Caco-2 cell monolayer permeability was carried out according to the previously reported method. Briefly, the Caco-2 cells were maintained in DMEM containing 10% FBS, 1% NEAA, 100 units/mL of penicillin, and 100 µg/mL of streptomycin, in a constant humidity atmosphere of 5% CO2 and 95% air at 37 °C. For confluence and differentiation, cells were seeded at a density of 1 × 10^5 cells/cm^2 into 12-well Transwell plates (insert diameter 12 mm, pore size 3.0 μm, membrane growth area 1.12 cm^2, Costar® #3402) and were allowed to grow for 21 days before the permeation experiment. On day 21, the monolayers with TEER values > 500 Ω·cm^2 were qualified for the transport experiment. The transport study was initiated by the careful removal of the culture medium from AP and BL sides of the inserts. Caco-2 monolayers were rinsed twice with pre-warmed HBSS and were incubated by pre-warmed HBSS for 30 min at 37 °C. […] The assayed solutions (50 µM) were added to the AP side (0.5 mL, for absorption transport) or BL side (1.5 mL, for efflux transport) of the inserts, while the receiving chamber contained the corresponding volume of HBSS. Incubation was performed at 37 °C for 90 min, with shaking at 50 rpm. Samples were collected from the inserts and lyophilized. The dried sample was then sonicated with the appropriate volume of MeOH, followed by centrifugation at 15,000× g for 10 min. The supernatant was filtered through a 0.45 μm filter and injected into HPLC system for quantitative analysis.
(§2) The AP to BL or BL to AP permeability coefficient (Papp) value of each compound was calculated based on the following equation:Papp = (dQ/dt) × (1/A) × (1/C0) (cm/s)(1) where dQ/dt is the rate of the appearance of the test compound on the receiver compartment (μmol/s), C0 is the initial test compound concentration on the donor compartment (μmol/mL), and A is the surface area of Caco-2 monolayer (cm^2).
(§3) While shaking the samples (37 °C, 50 rpm), 1.3 mL aliquots were taken from BL side or 0.45 mL aliquots were taken from AP side at 30 min intervals from […].
(§4) After shaking the samples (37 °C, 50 rpm) in a shaking water bath for 90 min, aliquots were collected as described above.
In general terms: Caco-2 monolayers are a common model of the intestinal barrier.

Assay in data set [2]: as above
The data set is classed as in vitro ADME, human. As to conditions: human; for Papp at 90 min, 50 µM / Papp A→B at 90 min, 50 µM / Papp B→A at 90 min, 50 µM: Caco-2 monolayer; for Papp at 90 min, 50 µM: both directions; for efflux ratio at 90 min, 50 µM: Caco-2, Caco-2 monolayer, read-out: Efflux Ratio (Papp BL→AP to Papp AP→BL); for Papp A→B at 90 min, 50 µM / Papp B→A at 90 min, 50 µM: incubation up to 90 min, n = 3. The method, then:
as §1, §2, §3, §4

Data set [3] in a line: Intracellular accumulation and total recovery (mass balance) at the end of transport. Type of data set: in vitro ADME, human. As to conditions: human, Caco-2, end of transport, n = 3. The method, then:
(§5) To measure the amount of intracellular accumulation, the Caco-2 cells were rinsed three times with ice-cold HBSS at the end of transport experiments. After three freeze (−20 °C)-thaw (room temperature) cycles, the lysed Caco-2 cells were lyophilized. The dried cells were sonicated in 0.2 mL of 70% aqueous MeOH for 20 min and then centrifuged at 15,000× g for 10 min. The supernatant was filtered through a 0.45 μm filter and a 10 μL aliquot was injected into the HPLC system for analysis. To check the mass balance, the recoveries of the assayed compounds were measured at both sides of the insert and intracellular accumulation of the Caco-2 cells.

In data set [4] the test system is Caco-2 cell monolayer. Described as above. The data set is classed as in vitro ADME, human. As for the experimental part: as §5
Data set [5] concerns Caco-2 cell monolayer. As to conditions: cited from earlier work; for Absorption designation: from previously reported Caco-2 Papp.
Data set [6] can be described thus: Bidirectional transport (Papp) across Caco-2 cell monolayer. The data set is classed as in vitro ADME. As to conditions: human, ratio of previously reported Papp values (refs 35, 36), read-out: Efflux Ratio (Papp BL→AP to Papp AP→BL).
The mark [7] stands for this setting: end of transport, n = 3, –: not detected.

Molecules are shown by their SMILES. Entries after “also recorded” stand apart in the source; their conditions may differ. Like-named read-outs stand apart in the source and are kept apart here.

Broadly, the Papp is a coefficient for how fast a substance crosses the barrier. By Papp A→B is commonly meant the apparent permeability from the apical to the basolateral side of a cell layer. In general, Papp B→A refers to how fast a substance crosses the layer from the basolateral side.

In the case of `CC1(C)[C@@H](O[C@H]2O[C@H](C(=O)O)[C@@H](O)[C@H](O)[C@H]2O[C@@H]2O[C@H](C(=O)O)[C@@H](O)[C@H](O)[C@H]2O)CC[C@]2(C)[C@H]3C(=O)C=C4[C@@H]5C[C@@](C)(C(=O)O)CC[C@]5(C)CC[C@@]4(C)[C@]3(C)CC[C@@H]12` [Compound 1, glycyrrhizin], the “Detection of compound in the receiving side” value with Caco-2 cell monolayer [1] (after incubation for 90 min, AP→BL and BL→AP) was “not detected; also recorded: below the lower limit of detection”. In addition, in the data set with Caco-2 cell monolayer [1], the Absorption designation result was “very poorly absorbed; also recorded: poorly absorbed”. The apparent permeability (Papp) at 90 min, 50 µM in data set [2] is < 0.1 ×10⁻⁶ cm/s.

As for `CC1(C)[C@@H](O[C@@H]2O[C@H](C(=O)O)[C@@H](O)[C@H](O)[C@H]2O)CC[C@]2(C)[C@H]3C(=O)C=C4[C@@H]5C[C@@](C)(C(=O)O)CC[C@]5(C)CC[C@@]4(C)[C@]3(C)CC[C@@H]12` [Compound 2, glycyrrhetic acid-3-O-mono-β-D-glucuronide], the recovery in data set [3] (read-out: Total recovery AP→BL) amounted to 97.04 ± 0.36%. Besides, the recovery in data set [3] (read-out: Total recovery BL→AP) is 91.6 ± 1.27%. In addition, in the data set with Caco-2 cell monolayer [1], the “Time course of bilateral permeation” value is recorded as “increased approximately linearly”, the Transport mechanism entry was “passive diffusion”, the “Efflux Ratio (Papp BL→AP to Papp AP→BL)” value is listed as 1.06 and the “Concentration dependence of rate of membrane permeation” value (“Concentration dependence” below) is on record as “increased approximately linearly”. The Absorption designation entry in the data set on Caco-2 cell monolayer [1] is given as “moderately absorbed”. In data set [2], the efflux ratio at 90 min, 50 µM lay within 1.06 to 1.11; the Papp A→B at 90 min, 50 µM was found to be 1.55 ± 0.09 ×10⁻⁶ cm/s; the apparent permeability from basolateral to apical (Papp B→A) at 90 min, 50 µM came out at 1.65 ± 0.95 ×10⁻⁶ cm/s; the apparent permeability coefficient (Papp) at 90 min, 50 µM was ~1 ×10⁻⁶ cm/s.

Regarding `CC1(C)[C@@H](O)CC[C@]2(C)[C@H]3C(=O)C=C4[C@@H]5C[C@@](C)(C(=O)O)CC[C@]5(C)CC[C@@]4(C)[C@]3(C)CC[C@@H]12` [Compound 3, glycyrrhetinic acid], the “CA (cell accumulation) AP→BL” value with Caco-2 cell monolayer [4] (setting [7]) is listed as 0.25 ± 0.01%. In addition, the recovery in data set [3] (read-out: Total recovery AP→BL) was determined as 85.1 ± 2.33%. In data set [3] (read-out: Total recovery BL→AP), the recovery worked out at 98.24 ± 0.59%. For the same compound, in the data set with Caco-2 cell monolayer [1], the “Time course of bilateral permeation” value is listed as “increased approximately linearly”, the Transport mechanism entry is listed as “passive diffusion”, the “Efflux Ratio (Papp BL→AP to Papp AP→BL)” value was 1.11 and the “Concentration dependence” value was “increased approximately linearly”. Moreover, in data set [2], the efflux ratio at 90 min, 50 µM was in the range of 1.06 to 1.11; the apical-to-basolateral permeability (Papp A→B) at 90 min, 50 µM came to 12.6 ± 0.4 ×10⁻⁶ cm/s; the basolateral-to-apical permeability (Papp B→A) at 90 min, 50 µM stood at 14 ± 1.3 ×10⁻⁶ cm/s; the Papp at 90 min, 50 µM is > 10 ×10⁻⁶ cm/s.

On to `C=CC(C)(C)c1cc(/C=C/C(=O)c2ccc(O)cc2)c(OC)cc1O` [Compound 4, licochalcone A], for which the “Cell accumulation / intracellular uptake (in words)” value in the data set on Caco-2 cell monolayer [4] (all bidirectional transport) is listed as “higher intracellular uptake; also recorded: higher accumulation”. The “Total recovery AP→BL” value with Caco-2 cell monolayer [4] (end of transport, n = 3) is reported as “relatively lower”. In the data set on Caco-2 cell monolayer [4] (setting [7]), the “CA (cell accumulation) AP→BL” value stood at 50.52 ± 1.88% and the “CA (cell accumulation) BL→AP” value was 42.56 ± 2.36%. Besides, in data set [3] (read-out: Total recovery AP→BL), the recovery was 81.88 ± 0.67%. Moreover, in data set [3] (read-out: Total recovery BL→AP), the recovery worked out at 90.4 ± 2.74%. For the same compound, in the data set on Caco-2 cell monolayer [1], the Absorption designation result is listed as “moderately absorbed”. Further, in data set [2], the efflux ratio at 90 min, 50 µM is 1.06; the apical-to-basolateral permeability (Papp A→B) at 90 min, 50 µM was 1.68 ± 0.13 ×10⁻⁶ cm/s; the apparent permeability from basolateral to apical (Papp B→A) at 90 min, 50 µM stood at 1.78 ± 0.03 ×10⁻⁶ cm/s.

For `COc1c(/C=C/C(=O)c2ccc(O)cc2)ccc(O)c1O` [Compound 5, licochalcone B], in data set [3] (read-out: Total recovery AP→BL), the recovery stood at 96.2 ± 0.19%. Moreover, the recovery in data set [3] (read-out: Total recovery BL→AP) amounted to 94.5 ± 2.89%. Further, in data set [2], the efflux ratio at 90 min, 50 µM was determined as 1.22; the Papp A→B at 90 min, 50 µM is 24.7 ± 2.8 ×10⁻⁶ cm/s; the Papp B→A at 90 min, 50 µM was found to be 30.2 ± 2.4 ×10⁻⁶ cm/s.

For the compound `COc1c(/C=C/C(=O)c2ccc(O)cc2)ccc(O)c1CC=C(C)C` [Compound 6, licochalcone C], the recovery in data set [3] (read-out: Total recovery AP→BL) was found to be 97.5 ± 1.26%. For the same compound, in data set [3] (read-out: Total recovery BL→AP), the recovery came out at 96.1 ± 4.55%. For the same compound, in data set [2], the efflux ratio at 90 min, 50 µM is 1.17; the apparent permeability from apical to basolateral (Papp A→B) at 90 min, 50 µM is 22.5 ± 1 ×10⁻⁶ cm/s; the basolateral-to-apical permeability (Papp B→A) at 90 min, 50 µM was found to be 26.4 ± 1.3 ×10⁻⁶ cm/s.

Take `COc1cc(O)ccc1/C=C/C(=O)c1ccc(O)cc1` [Compound 7, echinatin]: the recovery in data set [3] (read-out: Total recovery AP→BL) came out at 96.9 ± 2.67%. The recovery in data set [3] (read-out: Total recovery BL→AP) amounted to 97.7 ± 3.29%. In addition, in data set [2], the efflux ratio at 90 min, 50 µM turned out to be 1.15; the Papp A→B at 90 min, 50 µM is 20.7 ± 1 ×10⁻⁶ cm/s; the Papp B→A at 90 min, 50 µM is 23.8 ± 0.3 ×10⁻⁶ cm/s.

Turning to `O=C1C[C@@H](c2ccc(O)cc2)Oc2cc(O)ccc21` [Compound 9, liquiritigenin], in data set [3] (read-out: Total recovery AP→BL), the recovery was determined as 87 ± 2.78%. The recovery in data set [3] (read-out: Total recovery BL→AP) stood at 94.8 ± 4.29%. In the data set on Caco-2 cell monolayer [1], the “Time course of bilateral permeation” value is reported as “increased approximately linearly” and the “Concentration dependence” value was “increased approximately linearly”. Besides, in data set [2], the efflux ratio at 90 min, 50 µM stood at 0.88; the apical-to-basolateral permeability (Papp A→B) at 90 min, 50 µM was determined as 17.8 ± 0.6 ×10⁻⁶ cm/s; the Papp B→A at 90 min, 50 µM amounted to 15.7 ± 0.3 ×10⁻⁶ cm/s; the Papp at 90 min, 50 µM is ~10 ×10⁻⁶ cm/s.

Consider `O=C(/C=C/c1ccc(O)cc1)c1ccc(O)cc1O` [Compound 11, isoliquiritigenin], for which the “Papp BL→AP” value with Caco-2 cell monolayer [5] (Caco-2 monolayer) is 9.35 ± 0.43 ×10^−6 cm/s.

On to `O=C(/C=C/c1ccc(O[C@@H]2O[C@H](CO)[C@@H](O)[C@H](O)[C@H]2O)cc1)c1ccc(O)cc1O` [Compound 12, isoliquiritin], for which, in the data set with Caco-2 cell monolayer [5] (Caco-2 monolayer), the “Papp AP→BL” value is recorded as 0.87 ± 0.02 ×10^−6 cm/s, the “Papp BL→AP” value is 0.77 ± 0.07 ×10^−6 cm/s, the “Papp from AP to BL direction” value is “(8.69 ± 0.15) × 10^−7 cm/s” and the “Papp from BL to AP direction” value was “(7.68 ± 0.66) × 10^−7 cm/s”. The “Papp values (bidirectional)” value in the data set on Caco-2 cell monolayer [5] (Caco-2 monolayer) was ≤ 0.1 ×10⁻⁶ cm/s. Further, the Absorption designation entry with Caco-2 cell monolayer [5] is “poorly absorbed”. In addition, in data set [6], the efflux ratio amounted to 0.89.

Regarding `O=C1C[C@@H](c2ccc(O[C@@H]3O[C@H](CO)[C@@H](O)[C@H](O)[C@H]3O)cc2)Oc2cc(O)ccc21` [Compound 13, liquiritin], in the data set on Caco-2 cell monolayer [5] (Caco-2 monolayer), the “Papp AP→BL” value is 0.54 ± 0.02 ×10^−6 cm/s, the “Papp BL→AP” value was 0.53 ± 0.03 ×10^−6 cm/s, the “Papp from BL to AP direction” value was “(5.32 ± 0.31) × 10^−7 cm/s” and the “Papp values (bidirectional)” value was ~0.1 ×10⁻⁶ cm/s. Moreover, in the data set on Caco-2 cell monolayer [5], the Absorption designation result is “poorly absorbed”. Moreover, the efflux ratio in data set [6] worked out at 0.98.

`CC(C)NCC(O)COc1cccc2ccccc12` (stereo not shown) [propranolol, reference compound]: the Papp in data set [2] (Caco-2, read-out: Papp of transport markers) turned out to be 25.1 ×10⁻⁶ cm/s.

The values are drawn from PMC6151599, “Intestinal Absorption of Triterpenoids and Flavonoids from Glycyrrhizae radix et rhizoma in the Human Caco-2 Monolayer Cell Model” (Molecules : A Journal of Synthetic Chemistry and Natural …, 2017).
